Laboratory results reported in US6534652B2, “Intermediates for the preparation of substituted 1,2,3,4-tetrahydronaphthalene derivatives” (AstraZeneca AB, priority 1997, dated 2003).

Row | melting point | Compound
1 | 245 to 246 °C | CN1CCN(c2ccc(Br)c3c2C[C@H](NC(=O)c2ccc(N4CCOCC4)cc2)CC3)CC1 [Example 20, (R)-N-[5-Bromo-8-(4-methylpiperazin-1-yl)-1,2,3,4-tetrahydro-2-naphthyl]-4-morpholinobenzamide]
2 | 237 to 238 °C | COc1ccc(N2CCN(C)CC2)c2c1CC[C@@H](NC(=O)c1ccc(N3CCOCC3)cc1)C2 [Example 25, (R)-N-[5-Methoxy-8-(4-methylpiperazin-1-yl)-1,2,3,4-tetrahydro-2-naphthyl]-4-morpholinobenzamide]
3 | 234 °C (dec.) | CCc1ccc(N2CCN(C)CC2)c2c1CC[C@@H](NC(=O)c1ccc(N3CCOCC3)cc1)C2 [Example 42, (R)-N-[5-Ethyl-8-(4-methylpiperazin-1-yl)-1,2,3,4-tetrahydro-2-naphthyl]-4-morpholinobenzamide]
4 | 222 to 223 °C | CN1CCN(c2ccc(OC(F)F)c3c2C[C@H](NC(=O)c2ccc(N4CCOCC4)cc2)CC3)CC1 [Example 46, (R)-N-[5-Difluoromethoxy-8-(4-methylpiperazin-1-yl)-1,2,3,4-tetrahydro-2-naphthyl]-4-morpholinobenzamide]
5 | 200 °C (dec.) | COCc1ccc(N2CCN(C)CC2)c2c1CC[C@@H](NC(=O)c1ccc(N3CCOCC3)cc1)C2 [Example 51, (R)-N-[5-Methoxymethyl-8-(4-methylpiperazin-1-yl)-1,2,3,4-tetrahydro-2-naphthyl]-4-morpholinobenzamide]
6 | 84 to 88 °C | CN1CCN(c2ccc(O)c3c2C[C@H](NC(=O)c2ccc(N4CCOCC4)cc2)CC3)CC1 [Example 60, (R)-N-[5-Hydroxy-8-(4-methylpiperazin-1-yl)-1,2,3,4-tetrahydro-2-naphthyl]-4-morpholinobenzamide]

Continued, molecule first:

Row | Compound | melting point
7 | CCCCOc1ccc(C(=O)N[C@@H]2CCc3c(O)ccc(N4CCN(C)CC4)c3C2)cc1 [Example 11, (R)-N-[5-Hydroxy-8-(4-methylpiperazin-1-yl)-1,2,3,4-tetrahydro-2-naphthyl]-4-butoxybenzamide] | 125 °C (dec.)
8 | O=C(N[C@@H]1CCc2c(Br)ccc(N3CCNCC3)c2C1)c1ccc(N2CCOCC2)cc1 [Example 17, (R)-N-[5-Bromo-8-(piperazin-1-yl)-1,2,3,4-tetrahydro-2-naphthyl]-4-morpholinobenzamide] | 228 to 229 °C
9 | CN1CCN(c2ccc(O)c3c2C[C@H](NC(=O)c2ccc(C#N)cc2)CC3)CC1 [Example 26, (R)-N-[5-Hydroxy-8-(4-methylpiperazin-1-yl)-1,2,3,4-tetrahydro-2-naphthyl]-4-cyanobenzamide] | 144 °C
10 | COc1ccc(N2CCN(C)CC2)c2c1CC[C@@H](NC(=O)c1ccc(C(=O)N3CCOCC3)cc1)C2 [Example 27, (R)-N-[5-Methoxy-8-(4-methylpiperazin-1-yl)-1,2,3,4-tetrahydro-2-naphthyl]-4-morpholinocarbonylbenzamide] | 209 to 210 °C
11 | CN1CCN(c2ccc(Br)c3c2C[C@H](NC(=O)c2ccc(C(=O)N4CCOCC4)cc2)CC3)CC1 [Example 28, (R)-N-[5-Bromo-8-(4-methylpiperazin-1-yl)-1,2,3,4-tetrahydro-2-naphthyl]-4-morpholinocarbonylbenzamide] | 228 to 230 °C
12 | COc1ccc(C2CCN(C)CC2)c2c1CC[C@@H](NC(=O)c1ccc(N3CCOCC3)cc1)C2 [Example 38, (R)-N-[5-Methoxy-8-(1-methylpiperidin-4-yl)-1,2,3,4-tetrahydro-2-naphthyl]-4-morpholinobenzamide] | 237 to 242 °C (dec.)
13 | CN1CCN(c2ccc(Br)c3c2C[C@H](NC(=O)c2ccc(C(F)(F)F)cc2)CC3)CC1 [Example 48, (R)-N-[5-Bromo-8-(4-methylpiperazin-1-yl)-1,2,3,4-tetrahydro-2-naphthyl]-4-trifluoromethylbenzamide] | 229 to 230 °C
14 | Cc1ccc(N2CCNCC2)c2c1CC[C@@H](NC(=O)c1ccc(N3CCOCC3)cc1)C2 [Example 67, (R)-N-[5-Methyl-8-(piperazin-1-yl)-1,2,3,4-tetrahydro-2-naphthyl]-4-morpholinobenzamide] | 207 to 210 °C
15 | Cc1ccc(N2CCN(C)CC2)c2c1CC[C@@H](NC(=O)c1ccc(Cl)cc1)C2 [Example 68, (R)-N-[5-Methyl-8-(4-methylpiperazin-1-yl)-1,2,3,4-tetrahydro-2-naphthyl]-4-chlorobenzamide] | 210 to 212 °C
